Test results from patent publication US12616713B2, “Methods for enhancing vascular density” (priority 2016, dated 2026).

What was measured:
[1] = test system: MLECs from WT and ESKO mice; assay: Apoptosis of serum-starved MLECs (Annexin V/PI); type: cell-based, mouse; details: serum-starved overnight, SIRT1-dependent
Protocol: FIG. 38 is (A) a graph showing quantification of the relative cell number (n=12) of HUVECs incubated with PBS or NMN (0.5 mM) for 48 h in complete growth medium and cell number determined using flow cytometry. (B) a graph showing the number of apoptotic cells (Annexin V+/PI−) (n=12) when MLECs from WT and ESKO mice were serum-starved overnight, then assessed for apoptosis by Annexin V/PI staining and analyzed using flow cytometry. Data are expressed as mean±SEM. *p<0.05, **p<0.005, ***p<0.0005, ^δp<0.00005 by Student's t test (A), or two-way (B) ANOVA with Bonferroni's Multiple Comparisons Tests. (C) a schematic diagram of a model of how SIRT1 promotes sprouting angiogenesis. […]
HUVECs were treated with PBS (vehicle), NaHS (100 μM), NMN (500 μM) or NMN+NaHS for 6 h, followed by exposure to H2O2 (600 μM) for another 4 h. After treatments, the number of apoptotic cells was determined using Annexin V-FITC apoptosis detection kit (eBioscience) as per manufacturer's instructions. […] After mixing gently, the fluorescence intensity was detected with a flow cytometry (FACSCanto II Analyzer, BD Biosciences) at emission at 530 nm and 575 nm and excitation at 488 nm. Annexin-V and PI staining were detected with a flow cytometry (FACSCanto II Analyzer, BD Biosciences) at emission at 530 nm and 575 nm and excitation at 488 run.

C57BL/6J mice [2] = assay: Post-exercise blood lactate; type: in vivo, mouse; details: 20-month old mice
Protocol: Mice were fasted for 6 h and blood glucose levels were measured by tail bleed (Accu Check Performa, Roche). Blood lactate was measured before and immediately after treadmill exercise training for 20 minutes at 15 meters/minute by tail bleed (Accutrend Plus, Roche). For VEGF analysis, whole blood was drawn from the retroorbital sinus under brief isoflurane anesthesia. The serum was collected and assayed for VEGF expression by ELISA (Eve Technologies, Canada). Urine was collected after a 2 h fast and analyzed for creatinine levels using a colorimetric assay kit (Cayman chemical, US) as per manufacturer's protocol.

[3] = Food and water intake, body weight and composition, motor and cardiac function of treated old mice; type: in vivo, mouse; details: 18-month old mice, NMN 400 mg/kg/day in drinking water, two months
Text: SIRT1-iKO, SIRT1-Tg and SIRT1^STOP mice were described previously (Firestein et al., 2008, PLoS One 3, e2020; Price et al., 2012, Cell Metab 15, 675-690). Tie2Cre and Sirt1^flox/flox mice were purchased from Jackson Laboratory (Bar Harbor, ME). MCK-PGC-1α and MyogCre mice were gifts from Dr. Bruce Spiegelman (Dana Farber Cancer Center, MA) and Dr. Eric N. Olson (UT Southwestern, Dallas, TX), respectively. mT-STOP^flox/flox, Gfp mouse was generated in house by E.O.W., which consists of an allele driven by ubiquitous actin B promoter, which has loxP sites flanking membrane-targeted tandem dimer Tomato (mT) and transcriptional STOP cassette, followed by a GFP coding sequence. […] Mice were fasted for 6 h and blood glucose levels were measured by tail bleed (Accu Check Performa, Roche). Blood lactate was measured before and immediately after treadmill exercise training for 20 minutes at 15 meters/minute by tail bleed (Accutrend Plus, Roche). […] Urine was collected after a 2 h fast and analyzed for creatinine levels using a colorimetric assay kit (Cayman chemical, US) as per manufacturer's protocol. Motor coordination was assessed using the rotarod test as previously described ([…] et al., 2011, Plos One 6, e20336). […] On the 4th day, the animals were subjected to three trials on the accelerating roller (4-40 rpm in 4 min) and the time that the mice remained was recorded. […]

C57BL/6J mice [4] = assay: Optoacoustic imaging of hindlimb soluble oxygen (sO2); type: in vivo, mouse; details: 20-month old mice, photoacoustic tomography
Protocol: Optoacoustic imaging. An MSOT inVision 256-TF small animal imaging system (iThera Medical GmbH, Munich, Germany) was used (Morscher et al., 2014, Photoacoustics 2, 103-110). Mice were anesthetized with isoflurane (1.5-2%, 500 ml O2/min), and body portion below chest area was shaved using depilatory cream. The animals were then placed horizontally in the imaging chamber and three-dimensional scanning of the lower portion was performed as per manufacture's protocol. Briefly, a tunable optical parametric oscillator (OPO) pumped by an Nd:YAG laser provided excitation pulses with a duration of 9 ns at wavelengths from 680 nm to 980 nm at a repetition rate of 10 Hz with a wavelength tuning speed of 10 ms and a peak pulse energy of 100 mJ at 730 nm. Ten arms of a fiber bundle provided even illumination of a ring-shaped light strip of approx. 8 mm width. For ultrasound detection, 256 toroidally focused ultrasound transducers with a center frequency of 5 MHz (60% bandwidth), organized in a concave array of 270° angular coverage and a radius of curvature of 4 cm, were used.

NC(=O)c1ccc[n+]([C@@H]2O[C@H](COP(=O)([O-])O)[C@@H](O)[C@H]2O)c1 [NMN, nicotinamide mononucleotide]
apoptosis in ECs (Annexin V+/PI-) [1]: reduced apoptosis | post-exercise blood lactate (C57BL/6J mice [2]): 3.9 mmol/L | food intake, water consumption, body weights, body composition, motor learning skills and cardiac function [3]: had no effect | soluble oxygen (sO2) levels in resting muscle, greater than vehicle-treated controls (C57BL/6J mice [4]): 15%
